Results published in patent publication US4356183A, “Antihypertensive 4-thiazolidinecarboxylic acids (pyridyl derivatives)” (Santen Pharmaceutical Co., Ltd., priority 1978, dated 1982).
Where two headings read alike, the source gives them in different places.

Legend:
[1] = test system: contractile response of isolated guinea pig ileum to angiotensin I; experiment: Inhibition of contractile response of isolated guinea pig ileum to angiotensin I; type: cell-based; settings: Cavia porcellus, angiotensin I 0.1 μg/ml; compound added 5 min before; 30° C.; read-out: Angiotensin I IC50 (50% inhibition of angiotensin I activity inducing the contraction of guinea pig ileum)
From the text: As the method of measurement of angiotensin I-converting enzyme activity, bioassay for the contractile response of isolated smooth muscle or the pressor response of normal animals and biochemical assay for the enzyme isolated from lung or other organs of animals are known. The former is found more advantageous than the latter for the examination of the convertion of angiotensin I to angiotensin II in vivo.
In the present study, therefore, we adopted the bioassay for contractile response of isolated guinea pig ileum to angiotensin I.
(§1) Measurement of inhibitory activity of angiotensin I-converting enzyme
(§2) Isolated guinea pig ileum was suspended in the organ bath containing 20 ml of Tyrode's solution of 30° C. gassed with 95% O2 +5% CO2. The contraction induced by the addition of angiotensin I (0.1 μg/ml) at intervals of 10 minutes was recorded on a recticorder (Nihon Koden) for 90 seconds using FD pick up (ST-1T-H, Nihon Koden).
(§3) The test compounds were added to the bath 5 minutes before the addition of angiotensin I.
The inhibitory activity of angiotensin I-converting enzyme was calculated by the following formula. [formula] A: contractile intensity of angiotensin I before addition of the compound B: contractile intensity of angiotensin I after addition of the compound

[2] = test system: contractile response to bradykinin (isolated guinea pig ileum); experiment: Augmentation of contractile response of isolated guinea pig ileum to bradykinin; type: cell-based; settings: Cavia porcellus, bradykinin 0.005 μg/ml; compound added 5 min before; 30° C.; read-out: Bradykinin AC50 (50% augmentation of bradykinin activity inducing the contraction of guinea pig ileum)
Procedure: as §2, §3
From the fact that kininase II, which destroys bradykinin having contractive action on isolated guinea pig ileum, is thought to be identical with angiotensin I-converting enzyme, augmentation of the contractile response to bradykinin by test compounds was examined by using bradykinin (0.005 μg/ml) in place of angiotensin I according to the above mentioned method.

[3] = target: T1, angiotensin I-converting enzyme (Oryctolagus cuniculus, UniProt P12822); experiment: Inhibition of angiotensin I-converting enzyme by spectrophotometry (HHL substrate); type: biochemical; settings: enzyme from rabbit lung; 5 mM HHL; pH 8.3; 37° C., 30 min
T1 construct: angiotensin I-converting enzyme extracted from rabbit lung; from tissue; host or cells: rabbit lung
T1 sequence (P12822 34-1310): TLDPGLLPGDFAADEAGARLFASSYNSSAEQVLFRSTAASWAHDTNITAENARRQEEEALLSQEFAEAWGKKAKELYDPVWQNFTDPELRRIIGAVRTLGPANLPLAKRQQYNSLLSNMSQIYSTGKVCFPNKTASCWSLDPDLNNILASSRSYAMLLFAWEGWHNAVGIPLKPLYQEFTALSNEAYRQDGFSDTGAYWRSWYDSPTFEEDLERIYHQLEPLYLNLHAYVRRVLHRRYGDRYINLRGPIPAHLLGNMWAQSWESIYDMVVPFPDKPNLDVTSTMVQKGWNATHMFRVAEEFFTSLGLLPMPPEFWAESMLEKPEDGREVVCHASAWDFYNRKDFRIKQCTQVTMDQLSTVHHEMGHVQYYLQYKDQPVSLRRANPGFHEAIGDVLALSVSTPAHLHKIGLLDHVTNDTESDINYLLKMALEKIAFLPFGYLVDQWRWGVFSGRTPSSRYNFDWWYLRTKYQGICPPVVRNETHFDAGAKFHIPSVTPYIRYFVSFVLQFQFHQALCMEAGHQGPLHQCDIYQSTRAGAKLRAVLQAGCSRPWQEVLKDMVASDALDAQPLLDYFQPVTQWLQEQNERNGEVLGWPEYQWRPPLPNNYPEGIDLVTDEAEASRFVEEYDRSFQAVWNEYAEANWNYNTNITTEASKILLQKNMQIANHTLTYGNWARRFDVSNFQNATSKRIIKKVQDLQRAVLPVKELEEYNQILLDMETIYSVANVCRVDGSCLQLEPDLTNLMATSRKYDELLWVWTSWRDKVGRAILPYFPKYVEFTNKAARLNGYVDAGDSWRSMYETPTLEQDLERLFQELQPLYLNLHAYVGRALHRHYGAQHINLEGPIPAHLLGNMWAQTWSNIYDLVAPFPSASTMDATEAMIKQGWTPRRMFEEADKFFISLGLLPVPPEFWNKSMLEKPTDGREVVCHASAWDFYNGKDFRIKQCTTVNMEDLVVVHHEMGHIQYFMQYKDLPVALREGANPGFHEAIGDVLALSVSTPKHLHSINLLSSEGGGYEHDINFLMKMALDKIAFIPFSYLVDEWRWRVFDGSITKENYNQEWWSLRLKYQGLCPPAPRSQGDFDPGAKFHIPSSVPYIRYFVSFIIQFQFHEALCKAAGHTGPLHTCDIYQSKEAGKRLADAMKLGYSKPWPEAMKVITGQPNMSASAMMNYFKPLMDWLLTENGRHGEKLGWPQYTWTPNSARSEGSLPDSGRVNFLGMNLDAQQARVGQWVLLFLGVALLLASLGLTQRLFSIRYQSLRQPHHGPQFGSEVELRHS
Procedure: That is, the absorbance of hippuric acid was measured, which is liberated by incubating hippuryl-L-histidyl-L-leucine (HHL) as substrate in the presence of angiotensin I-converting enzyme extracted from rabbit lung.
as §1
The reaction mixture is as follows:
100 mM phosphate buffer (pH 8.3)
10^-3 ~10^-9 M enzyme inhibitor
0.25 ml of the above mixture was incubated at 37° C. for 30 minutes and the reaction was stopped by adding 0.25 ml of 1 N hydrochloric acid. To this solution, 1.5 ml of ethyl acetate was added in order to extract hippuric acid. 1.0 ml of ethyl acetate layer was collected and evaporated to dryness, and the residue obtained was dissolved in 1.0 ml of water.
The inhibitory activity of angiotensin I-converting enzyme was calculated by the following formula: [formula]

[4] = test system: pressor response to angiotensin I; experiment: Inhibition of pressor response to angiotensin I in rats after oral administration; type: in vivo, rat (male Wistar); settings: angiotensin I 300 ng/kg i.v.; for Inhibition (%) of pressor response to angiotensin I, 5 min / Inhibition (%) of pressor response to angiotensin I, 15 min / Inhibition (%) of pressor response to angiotensin I, 25 min / Inhibition (%) of pressor response to angiotensin I, 35 min / Inhibition (%) of pressor response to angiotensin I, 45 min / Inhibition (%) of pressor response to angiotensin I, 55 min / Inhibition (%) of pressor response to angiotensin I, 65 min / Inhibition (%) of pressor response to angiotensin I, 75 min / Inhibition (%) of pressor response to angiotensin I, 85 min: dose: 3, 45, 49 1.8 mg/kg, 4, 46 1.3, 50 1.4, 76 2.0, 77 1.5; for Inhibition (%) of pressor response to angiotensin I, 95 min: dose: 45, 49 1.8 mg/kg, 4, 46 1.3, 50 1.4, 76 2.0, 77 1.5
Procedure: Male Wistar strain rats weighing about 200-300 g were used.
Under ether anesthesia, polyethylene cannulae are inserted into carotid arthery and jugular vein. The cannula to carotid artery is connected to an electric transducer, while the cannula to jugular vein is connected to an apparatus for continuous infusion. After the complete recovery from anesthesia, angiotensin I is infused intravenously in a dose of 300 ng/kg by the apparatus for continuous infusion, and the pressor response is recorded by polygraph (Nihon Koden, RM-150).
The compounds of this invention suspended in 0.5% tragacanth solution are administered orally in a dose of 0.3 ml per 100 g of body weight, and the pressor response to angiotensin I infused intravenously is measured with time.
The inhibitory activity of the compounds against angiotensin I-converting enzyme is expressed as the percent inhibition of pressor response to angiotensin I.

[5] = Acute toxicity test; settings: rat, in vivo
Procedure: The male ddy-SLC strain […] (4 weeks of age, weighing 19-21 g) were placed in a breeding room of constant temperature and humidity (23°±1° C., 55±5%) and fed freely pellet diet (CE-2, Clea Japan Inc.) and water ad. libitum for a week. The rats showing the normal growth were selected for the experiment.
Test compounds are suspended in 0.5% tragacanth solution (p.o.) or dissolved in distilled water (i.v., i.p.), and administered in a dose of 0.5 ml/20 g body weight.

Structure (SMILES)	IC50 [1] [nM]	AC50 [2] [nM]	IC50 [3] [nM]	Inhibition (%) of pressor response to angiotensin I, 5 min [4] [%]	Inhibition (%) of pressor response to angiotensin I, 15 min [4] [%]	Inhibition (%) of pressor response to angiotensin I, 25 min [4] [%]	Inhibition (%) of pressor response to angiotensin I, 35 min [4] [%]	Inhibition (%) of pressor response to angiotensin I, 45 min [4] [%]	Inhibition (%) of pressor response to angiotensin I, 55 min [4] [%]	Inhibition (%) of pressor response to angiotensin I, 65 min [4] [%]	Inhibition (%) of pressor response to angiotensin I, 75 min [4] [%]	Inhibition (%) of pressor response to angiotensin I, 85 min [4] [%]	Inhibition (%) of pressor response to angiotensin I, 95 min [4] [%]	LD50 ([5]; ip, dissolved in distilled water, pH 7, read-out: LD i.p.) [mg/kg]	Inhibition (%) of pressor response to angiotensin I, 105 min ([4]; 105 min, dose: 45, 49 1.8 mg/kg, 46 1.3, 50 1.4, 76 2.0, 77 1.5) [%]	Inhibition (%) of pressor response to angiotensin I, 115 min ([4]; 115 min, dose: 45, 49 1.8 mg/kg, 46 1.3, 50 1.4, 76 2.0, 77 1.5) [%]	LD50 ([5]; po, suspended in 0.5% tragacanth solution, read-out: LD50 p.o.) [mg/kg]
C[C@H](CS)C(=O)N1C(C2CCCCC2)SC[C@H]1C(=O)O (some centres unmarked) [Compound 4]	50	2	120	46.7	46.5	37.2	32.2	28.8	27.5	27.5	13.8	14.5	10.3				
C[C@H](CS)C(=O)N1C(c2ccccc2)SC[C@H]1C(=O)O (some centres unmarked) [Compound 18]	190	3.1	60											> 1000			
O=C(O)[C@@H]1CSC(c2ccccc2O)N1C(=O)CCS (stereo partly drawn) [Compound 46, (4R)-2-(2-Hydroxyphenyl)-3-(3-mercaptopropanoyl)-4-thiazolidinecarboxylic acid]	19	0.3		53.3	62.9	64.7	63.7	54.0	49.3	47.7	38.8	34.0	30.0		30.0	31.0	> 10000
